The results in this text go back to patent US20140073651A1, “BENZAMIDE DERIVATIVES AS P2X7 RECEPTOR ANTAGONISTS” (Actelion Pharmaceuticals Ltd., priority 2011, published 2014).

For this experiment, the target named is T1, human recombinant P2X7 receptor (Homo sapiens, UniProt Q99572).
T1 construct: expressed in transfected cells
T1 sequence (Q99572 1-595): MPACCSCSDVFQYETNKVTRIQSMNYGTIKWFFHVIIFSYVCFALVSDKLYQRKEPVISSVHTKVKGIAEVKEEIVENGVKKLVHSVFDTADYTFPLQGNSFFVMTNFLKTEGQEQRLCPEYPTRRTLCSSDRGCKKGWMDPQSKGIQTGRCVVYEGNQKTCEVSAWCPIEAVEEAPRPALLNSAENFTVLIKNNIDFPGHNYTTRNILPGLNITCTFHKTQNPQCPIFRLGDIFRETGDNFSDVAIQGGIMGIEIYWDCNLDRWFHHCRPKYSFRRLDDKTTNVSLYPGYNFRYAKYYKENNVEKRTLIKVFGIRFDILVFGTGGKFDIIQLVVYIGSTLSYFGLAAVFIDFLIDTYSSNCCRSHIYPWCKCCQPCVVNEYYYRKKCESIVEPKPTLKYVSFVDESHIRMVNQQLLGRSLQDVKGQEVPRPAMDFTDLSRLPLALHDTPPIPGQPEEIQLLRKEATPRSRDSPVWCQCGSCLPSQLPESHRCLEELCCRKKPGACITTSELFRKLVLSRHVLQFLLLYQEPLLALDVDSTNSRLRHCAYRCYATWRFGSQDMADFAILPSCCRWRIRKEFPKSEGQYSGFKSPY
The experiment in a line: YO-PRO assay (YO-PRO-1 uptake) in HEK cells stably expressing P2X7. The format is cell-based. The conditions noted are these: HEK-293 cells expressing human recombinant P2X7 receptor; ATP 250 μM, 90 minutes; YO-PRO-1 fluorescence (FLIPR tetra); read-out: IC50 (antagonistic activity with respect to the P2X7 receptor). Here is the method: Cell line generation was performed in general according to established molecular cloning protocols. Specifically, RNA was extracted from human whole blood using the Qiagen RNeasy kit (Qiagen, CH) according to the manufacturer's instructions. Subsequently cDNA was made (Superscript II, Invitrogen AG, CH) and the human P2X7 gene (genbank ref. BC011913) was amplified with the following primers: [NT] and [NT] The amplified sequence was subsequently ligated into a pcDNA3.1 (+) NotI, NheI digested plasmid. […] Following a 24 h exposure to DNA, cells were trypsinized and re-seeded at low density in the presence of 250 μg Geneticin. Geneticin resistant cells were then selected during two consecutive rounds of cloning by serial limiting dilution with visual inspection. Individual clones were screened for P2X7 expression by applying ATP and recording the resultant uptake of YO-[…]. Specific cell clones were chosen based on RNA and protein expression. HEK cells stably expressing P2X7 were used to screen drugs using the YO-[…] assay. Cells were grown to confluency in adherent culture at 37° C. in a humidified 5% CO2 incubator (split 1/5 every 3-4 days with DMEM, 10% FCS, 1% Penicillin/Streptomycin, 250 μg/ml Geneticin). Adherent cells were detached by incubation with Trypsine (1 ml per 165 cm^2 dish) for 2 minutes, then washed off with 10 ml PBS (without Mg^2+ and Ca^2+), and resuspended in DMEM, 10% FCS, 1% Penicillin/Streptomycin, no Geneticin. 10'000 cells per well (48 hours before the assay) or 25'000 cells per well (Vi-cell XR (Beckman Coulter) (24 hours before the assay) in 50 μl full medium were seeded on 384-well black-wall, clear bottom plates, that were coated before with 10 μl per well Poly-L-Lysine, incubated for 30-60 minutes at 37° C. and washed once with PBS. Medium was removed from cells and 50 μl of assay buffer containing 0.5 μM YO-[…] was added into the wells. Solutions of antagonist compounds were prepared by serial dilutions of a 10 mM DMSO solution of the antagonist into PBS using a BioMek (Beckman Coulter). Each concentration was performed in duplicate. […] During this time period, four time points were taken. Each time point comprised the average of several measurements made within a few seconds. […] The FLIPR tetra was equipped with Molecular Devices Screen Works system control software to define and run experimental protocols. […] For IC50 measurements the maximum intensity is plotted against the concentration of compound to determine IC50 values.
For orientation: IC50 means the midpoint of a concentration-inhibition curve. On to `O=C(NCC1(O)CCCCC1)c1cc([S+]([O-])c2ccccn2)ccc1Cl` (racemic) [Example 133, rac-2-Chloro-N-(1-hydroxy-cyclohexylmethyl)-5-(pyridine-2-sulfinyl)-benzamide], for which the IC50 amounted to 265 nM.

Turning to `O=C(NCC1(O)CCCCC1)c1cc([S+]([O-])c2ccnc(Cl)n2)ccc1Cl` (racemic) [Example 136, rac-2-Chloro-5-(2-chloro-pyrimidine-4-sulfinyl)-N-(1-hydroxy-cyclohexylmethyl)-benzamide], the IC50 came out at 640 nM.

`COc1nccc([S+]([O-])c2ccc(Cl)c(C(=O)NCC3(O)CCCCC3)c2)n1` (racemic) [Example 140, rac-2-Chloro-N-(1-hydroxy-cyclohexylmethyl)-5-(2-methoxy-pyrimidine-4-sulfinyl)-benzamide]: the half-maximal inhibitory concentration (IC50) was 914 nM.

Regarding `O=C(NCC1(O)CCCCC1)c1cc(C(F)c2cc[nH]c(=O)n2)ccc1Cl` (racemic) [Example 152, rac-2-Chloro-5-[fluoro-(2-oxo-1,2-dihydro-pyrimidin-4-yl)-methyl]-N-(1-hydroxy-cyclohexylmethyl)-benzamide], the IC50 worked out at 25 nM.

As to `CC(O)(c1ccc(Cl)c(C(=O)NCC2(O)CCCCC2)c1)c1cc[nH]c(=O)n1` (racemic) [Example 156, rac-2-Chloro-N-(1-hydroxy-cyclohexylmethyl)-5-[1-hydroxy-1-(2-oxo-1,2-dihydro-pyrimidin-4-yl)-ethyl]-benzamide], the IC50 worked out at 14 nM. With `COc1nccc(C(C)(O)c2ccc(Cl)c(C(=O)NCC3(O)CCCCC3)c2)n1` (racemic) [Example 159, rac-2-Chloro-N-(1-hydroxy-cyclohexylmethyl)-5-[1-hydroxy-1-(2-methoxy-pyrimidin-4-yl)-ethyl]-benzamide] the figure was 346 nM; with `CC(O)(c1ccc(Cl)c(C(=O)NCC2(O)CCCCC2)c1)c1cc[nH]c(=O)n1` (single isomer, unassigned) [Example 157, 2-Chloro-N-(1-hydroxy-cyclohexylmethyl)-5-[1-hydroxy-1-(2-oxo-1,2-dihydro-pyrimidin-4-yl)-ethyl]-benzamide], 9 nM. Regarding `CC(O)(c1ccc(Cl)c(C(=O)NCC2(O)CCCCC2)c1)c1cc[nH]c(=O)n1` (single isomer, unassigned) [Example 158], the half-maximal inhibitory concentration (IC50) amounted to 66 nM. Turning to `O=C(NCC1(O)CCCCC1)c1cc(Nc2ccccc2)ccc1Cl` [Example 1, 2-Chloro-N-(1-hydroxy-cyclohexylmethyl)-5-phenylamino-benzamide], the IC50 was 111 nM. `CN(c1ccccc1)c1ccc(Cl)c(C(=O)NCC2(O)CCCCC2)c1` [Example 2, 2-Chloro-N-(1-hydroxy-cyclohexylmethyl)-5-(methyl-phenyl-amino)-benzamide]: the IC50 is 315 nM. `COCCN(c1ccccc1)c1ccc(Cl)c(C(=O)NCC2(O)CCCCC2)c1` [Example 3, 2-Chloro-N-(1-hydroxy-cyclohexylmethyl)-5-[(2-methoxy-ethyl)-phenyl-amino]-benzamide]: the IC50 is 538 nM.

`O=C(NCC1(O)CCCCC1)c1cc(Nc2ccccc2F)ccc1Cl` [Example 4, 2-Chloro-5-(2-fluoro-phenylamino)-N-(1-hydroxy-cyclohexylmethyl)-benzamide]: the IC50 was determined as 103 nM. As to `CN(c1ccc(Cl)c(C(=O)NCC2(O)CCCCC2)c1)c1ccccc1F` [Example 5, 2-Chloro-5-[(2-fluoro-phenyl)-methyl-amino]-N-(1-hydroxy-cyclohexylmethyl)-benzamide], the IC50 came out at 531 nM. In the case of `O=C(NCC1(O)CCCCC1)c1cc(Nc2ccc(F)cc2F)ccc1Cl` [Example 6, 2-Chloro-5-(2,4-difluoro-phenylamino)-N-(1-hydroxy-cyclohexylmethyl)-benzamide], the IC50 was 154 nM. As to `CN(c1ccc(Cl)c(C(=O)NCC2(O)CCCCC2)c1)c1ccc(F)cc1F` [Example 7, 2-Chloro-5-[(2,4-difluoro-phenyl)-methyl-amino]-N-(1-hydroxy-cyclohexylmethyl)-benzamide], the IC50 was 876 nM.

For `O=C(NCC1(O)CCCCC1)c1cc(Nc2ccncn2)ccc1Cl` [Example 8, 2-Chloro-N-(1-hydroxy-cyclohexylmethyl)-5-(pyrimidin-4-ylamino)-benzamide], the IC50 was 459 nM. Regarding `CN(c1ccc(Cl)c(C(=O)NCC2(O)CCCCC2)c1)c1ccncn1` [Example 9, 2-Chloro-N-(1-hydroxy-cyclohexylmethyl)-5-(methyl-pyrimidin-4-yl-amino)-benzamide], the IC50 is 481 nM.

Regarding `O=C(NCC1(O)CCCCC1)c1cc(Nc2ccnc(Cl)n2)ccc1Cl` [Example 10, 2-Chloro-5-(2-chloro-pyrimidin-4-ylamino)-N-(1-hydroxy-cyclohexylmethyl)-benzamide], the IC50 came out at 890 nM. With `CN(c1ccc(Cl)c(C(=O)NCC2(O)CCCCC2)c1)c1ccnc(Cl)n1` [Example 11, 2-Chloro-5-[(2-chloro-pyrimidin-4-yl)-methyl-amino]-N-(1-hydroxy-cyclohexylmethyl)-benzamide], the IC50 was 184 nM. For `COc1nccc(Nc2ccc(Cl)c(C(=O)NCC3(O)CCCCC3)c2)n1` [Example 12, 2-Chloro-N-(1-hydroxy-cyclohexylmethyl)-5-(2-methoxy-pyrimidin-4-ylamino)-benzamide], the IC50 worked out at 733 nM.

For the compound `COc1nccc(N(C)c2ccc(Cl)c(C(=O)NCC3(O)CCCCC3)c2)n1` [Example 13, 2-Chloro-N-(1-hydroxy-cyclohexylmethyl)-5-[(2-methoxy-pyrimidin-4-yl)-methyl-amino]-benzamide], the IC50 was 200 nM. Regarding `CNc1nccc(N(C)c2ccc(Cl)c(C(=O)NCC3(O)CCCCC3)c2)n1` [Example 14, 2-Chloro-N-(1-hydroxy-cyclohexylmethyl)-5-[methyl-(2-methylamino-pyrimidin-4-yl)-amino]-benzamide], the IC50 stood at 127 nM. Turning to `CN(C)c1nccc(N(C)c2ccc(Cl)c(C(=O)NCC3(O)CCCCC3)c2)n1` [Example 15, 2-Chloro-5-[(2-dimethylamino-pyrimidin-4-yl)-methyl-amino]-N-(1-hydroxy-cyclohexylmethyl)-benzamide], the IC50 was determined as 177 nM. With `O=C(NCC1(O)CCCCC1)c1cc(Nc2ccnc(O)n2)ccc1Cl` [Example 16, 2-Chloro-N-(1-hydroxy-cyclohexylmethyl)-5-(2-hydroxypyrimidin-4-ylamino)-benzamide], the IC50 turned out to be 73 nM. Regarding `CN(c1ccc(Cl)c(C(=O)NCC2(O)CCCCC2)c1)c1cc[nH]c(=O)n1` [Example 17, 2-Chloro-N-(1-hydroxy-cyclohexylmethyl)-5-[methyl-(2-oxo-1,2-dihydro-pyrimidin-4-yl)-amino]-benzamide], the IC50 came to 35 nM.

`CN(c1ccc(Cl)c(C(=O)NCC2(O)CCCCC2)c1)c1ccnc(=O)n1C` [Example 18, 2-Chloro-N-(1-hydroxy-cyclohexylmethyl)-5-[methyl-(3-methyl-2-oxo-2,3-dihydro-pyrimidin-4-yl)-amino]-benzamide]: the IC50 turned out to be 106 nM. Turning to `CN(c1ccc(Cl)c(C(=O)NCC2(O)CCCCC2)c1)c1ccn(C)c(=O)n1` [Example 19, 2-Chloro-N-(1-hydroxy-cyclohexylmethyl)-5-[methyl-(1-methyl-2-oxo-1,2-dihydro-pyrimidin-4-yl)-amino]-benzamide], the IC50 was found to be 420 nM. To `CCN(c1ccc(Cl)c(C(=O)NCC2(O)CCCCC2)c1)c1ccnc(Cl)n1` [Example 20, 2-Chloro-5-[(2-chloro-pyrimidin-4-yl)-ethyl-amino]-N-(1-hydroxy-cyclohexylmethyl)-benzamide] belongs 228 nM.
